Data on twelve compounds can be found in ChEMBL document CHEMBL1136038, “Parallel solution- and solid-phase synthesis of spiropyrrolo-pyrroles as novel neurokinin receptor ligands” (Bioorg Med Chem Lett, 2002).

Broadly, the Ki is the dissociation constant of the complex between target and ligand, obtained from inhibition or displacement.

This assay addresses Substance-P receptor (Homo sapiens, UniProt P25103). Briefly: Affinity for human Tachykinin receptor 1 expressed in CHO cells. Type of assay: cell-based.

Chain of Substance-P receptor (P25103 whole entry): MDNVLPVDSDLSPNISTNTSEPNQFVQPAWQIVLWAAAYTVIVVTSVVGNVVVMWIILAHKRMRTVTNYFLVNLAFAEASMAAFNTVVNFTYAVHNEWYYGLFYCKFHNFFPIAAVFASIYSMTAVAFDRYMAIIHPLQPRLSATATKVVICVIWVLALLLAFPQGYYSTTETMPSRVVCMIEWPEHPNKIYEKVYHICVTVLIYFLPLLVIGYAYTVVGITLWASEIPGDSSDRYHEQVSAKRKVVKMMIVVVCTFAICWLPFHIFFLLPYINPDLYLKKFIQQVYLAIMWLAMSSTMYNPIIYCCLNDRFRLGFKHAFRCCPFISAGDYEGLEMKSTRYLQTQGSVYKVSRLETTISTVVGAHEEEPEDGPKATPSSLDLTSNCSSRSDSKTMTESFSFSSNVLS

Consider `O=C1COc2ccc(S(=O)(=O)N3CCC4(CC3)C3C(=O)N(c5ccccc5)C(=O)C3CN4C(=O)c3cc(C(F)(F)F)cc(C(F)(F)F)c3)cc2N1` (configuration not stated), for which the affinity, expressed as Ki, was 30.9 nM.

On to `CC(C)(C)C(=O)N1CCC2(CC1)C1C(=O)N(c3ccccc3)C(=O)C1CN2C(=O)c1cc(C(F)(F)F)cc(C(F)(F)F)c1` (configuration not stated), for which the Ki is 302 nM.

Consider `O=C1C2CN(C(=O)c3sc4ccccc4c3Cl)C3(CCNCC3)C2C(=O)N1Cc1cc(C(F)(F)F)cc(C(F)(F)F)c1` (configuration not stated), for which the affinity corresponds to a Ki of 501 nM.

`CN1C(=O)C2CN(Cc3cccs3)C3(CCN(C(=O)c4cc(C(F)(F)F)cc(C(F)(F)F)c4)CC3)C2C1=O` (configuration not stated): the affinity, expressed as Ki, was 513 nM.

`O=C(c1cc(C(F)(F)F)cc(C(F)(F)F)c1)N1CCC2(CC1)C1C(=O)N(c3ccccc3)C(=O)C1CN2C(=O)CN1CCOCC1` (configuration not stated): the affinity, expressed as Ki, was 8.32 nM.

In turn, `CS(=O)(=O)N1CCC2(CC1)C1C(=O)N(Cc3cc(C(F)(F)F)cc(C(F)(F)F)c3)C(=O)C1CN2C(=O)c1ccc2ccccc2c1` (configuration not stated) showed a Ki of 263 nM.

On to `CN1C(=O)C2CN(S(=O)(=O)c3ccc4ccccc4c3)C3(CCN(C(=O)c4cc(C(F)(F)F)cc(C(F)(F)F)c4)CC3)C2C1=O` (configuration not stated), for which the affinity corresponds to a Ki of 38.9 nM.

`COc1ccc(OC)c(S(=O)(=O)N2CCC3(CC2)C2C(=O)N(c4ccccc4)C(=O)C2CN3C(=O)c2cc(C(F)(F)F)cc(C(F)(F)F)c2)c1` (configuration not stated) had a Ki of 30.2 nM.

On to `Cc1noc(C)c1S(=O)(=O)N1CCC2(CC1)C1C(=O)N(c3ccccc3)C(=O)C1CN2C(=O)c1cc(C(F)(F)F)cc(C(F)(F)F)c1` (configuration not stated), for which the Ki is 75.9 nM.

As for `CS(=O)(=O)N1CC2C(=O)N(c3ccccc3)C(=O)C2C12CCN(C(=O)c1cc(C(F)(F)F)cc(C(F)(F)F)c1)CC2` (configuration not stated), the affinity corresponds to a Ki of 5.13 nM.

The compound `COc1ccccc1C(=O)N1CC2C(=O)N(C)C(=O)C2C12CCN(C(=O)c1cc(C(F)(F)F)cc(C(F)(F)F)c1)CC2` (configuration not stated) showed a Ki of 794 nM.

`O=C1C2CN(C(=O)COCc3ccccc3)C3(CCNCC3)C2C(=O)N1Cc1cc(C(F)(F)F)cc(C(F)(F)F)c1` (configuration not stated) had a Ki of 2290 nM.
